In patent US11858934B1, “Substituted pyrido[4′,3′:5,6]pyrimido[1,2-a]indoles as CK2 inhibitors” (KING FAISAL UNIVERSITY, priority 2023, dated 2024):

Key:
[1] = test system: HCT116 (colon); assay: MTT in vitro cytotoxic activity assay, HCT116; type: cell-based; conditions: Homo sapiens, HCT-116; HCT116 (colon) cells, exposed for 96 hours; read-out: IC50, 50% inhibition of cell proliferation
Procedure: (§1) Compounds 1-12 were screened for their in vitro cytotoxic activity utilizing a 3-(4,5-dimethyl-thiazol-2-yl)-2,5-diphenyltetrazolium bromide (MTT) assay against selected cancer human cell lines consisting of PC3 (prostate), HCT116 (colon), A375 (melanoma), H1299 (lung), MIAPaCa-2 (pancreas), HL60 (leukemia), MCF7 (breast), MDA-MB-231 (breast) (T. Mosmann, J. Immunol. Meth., 1983, 65, 55-63). The cells were cultured at 37° C. in RMPI1640 medium supplemented with 10% fetal bovine serum, 50 IU/mL penicillin, and 50 μg/mL streptomycin in a 5% CO2 incubator. All cells were sub-cultured 3 times/week by trypsinisation. Viable cells were seeded and allowed to adhere for 12 h before a test drug was added in 96-well plates at an initial density of 1.0×10^5 cells/mL. Tumour cell lines were separately exposed to various concentrations of the tested compounds followed by incubation at a temperature of 37° C. during 96 h inside a medium of fresh RMPI 1640. Cells were subsequently incubated at 37° C. using MTT at 0.5 mg/mL during 4 h. After removal of supernatant, formazan crystals were dissolved in isopropanol and the optical density was measured at 570 nm. CX-4945 was used as a positive control.

[2] = test system: MIAPaCa-2 (pancreas); assay: MTT in vitro cytotoxic activity assay, MIAPaCa-2; type: cell-based; conditions: Homo sapiens, MIA PaCa-2; MIAPaCa-2 (pancreas) cells, exposed for 96 hours; read-out: IC50, 50% inhibition of cell proliferation
Procedure: as §1

[3] = test system: PC3 (prostate); assay: MTT in vitro cytotoxic activity assay, PC3; type: cell-based; conditions: Homo sapiens, Prostate cell; PC3 (prostate) cells, exposed for 96 hours; read-out: IC50, 50% inhibition of cell proliferation
Procedure: as §1

[4] = test system: MCF7 (breast); assay: MTT in vitro cytotoxic activity assay, MCF7; type: cell-based; conditions: Homo sapiens; MCF7 (breast) cells, exposed for 96 hours; read-out: IC50, 50% inhibition of cell proliferation
Procedure: as §1

[5] = test system: MDA-MB-231 (breast); assay: MTT in vitro cytotoxic activity assay, MDA-MB-231; type: cell-based; conditions: Homo sapiens; MDA-MB-231 (breast) cells, exposed for 96 hours; read-out: IC50, 50% inhibition of cell proliferation
Procedure: as §1

[6] = target: T1, recombinant human CK2 (Homo sapiens, UniProt P68400); assay: CK2 kinase assay (33P-ATP, substrate peptide RRRDDDSDDD); type: biochemical; conditions: final ATP concentration 15 μM, 10 min at 30° C; read-out: IC50, protein kinase CK2 activity
T1 construct: purchased Millipore
Procedure: CK2 Kinase Assay was conducted using the protocol as described in Pierre F. et al; J. Med. Chem. 2011, 54, 635-654. The tested compounds in aqueous solution were added at a volume of 10 μL to a reaction mixture comprising 10 μL of assay dilution buffer (ADB; 20 mM MOPS, pH 7.2, 25 mM (β-glycerol phosphate, 5 mM EGTA, 1 mM sodium orthovanadate, and 1 mM dithiothreitol), 10 μL of substrate peptide (RRRDDDSDDD, dissolved in ADB at a concentration of 1 mM), 10 μL of recombinant human CK2 (RRfββ-holoenzyme, 25 ng dissolved in ADB; Millipore). Reactions were initiated by the addition of 10 μL of ATP solution (90% 75 mMMgCl2, 75 μM ATP (final ATP concentration: 15 μM) dissolved in ADB; 10% [γ-33P] ATP (stock 1 mCi/100 μL; 3000 Ci/mmol (Perkin-Elmer) and maintained for 10 min at 30° C. The reactions were quenched with 100 μL of 0.75% phosphoric acid and then transferred to and filtered through a phosphor cellulose filter plate (Millipore). After washing each well five times with 0.75% phosphoric acid, the plate was dried under vacuum for 5 min and, following the addition of 15 μL of scintillation fluid to each well, the residual radioactivity was measured using a Wallac luminescence counter. The IC50 values were derived from eight concentrations of test inhibitors.

[7] = test system: A375 (melanoma); assay: MTT in vitro cytotoxic activity assay, A375; type: cell-based; conditions: Homo sapiens, A-375; A375 (melanoma) cells, exposed for 96 hours; read-out: IC50, 50% inhibition of cell proliferation
Procedure: as §1

[8] = test system: HL60 (leukemia); assay: MTT in vitro cytotoxic activity assay, HL60; type: cell-based; conditions: Homo sapiens, HL-60; HL60 (leukemia) cells, exposed for 96 hours; read-out: IC50, 50% inhibition of cell proliferation
Procedure: as §1

[9] = test system: H1299 (lung); assay: MTT in vitro cytotoxic activity assay, H1299; type: cell-based; conditions: Homo sapiens, NCI-H1299; H1299 (lung) cells, exposed for 96 hours; read-out: IC50, 50% inhibition of cell proliferation
Procedure: as §1

T1 sequence (P68400 whole entry): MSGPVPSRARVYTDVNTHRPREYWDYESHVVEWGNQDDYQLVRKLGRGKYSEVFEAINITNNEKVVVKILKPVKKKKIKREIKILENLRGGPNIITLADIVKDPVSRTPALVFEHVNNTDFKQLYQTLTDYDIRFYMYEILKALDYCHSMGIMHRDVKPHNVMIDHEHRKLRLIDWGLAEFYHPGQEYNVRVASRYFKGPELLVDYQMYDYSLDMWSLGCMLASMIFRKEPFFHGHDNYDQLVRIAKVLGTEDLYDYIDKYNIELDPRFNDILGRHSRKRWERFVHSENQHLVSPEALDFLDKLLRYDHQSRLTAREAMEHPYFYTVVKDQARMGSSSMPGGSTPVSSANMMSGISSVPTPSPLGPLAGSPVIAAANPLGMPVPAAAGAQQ
T1 sequence (P67870 whole entry partner): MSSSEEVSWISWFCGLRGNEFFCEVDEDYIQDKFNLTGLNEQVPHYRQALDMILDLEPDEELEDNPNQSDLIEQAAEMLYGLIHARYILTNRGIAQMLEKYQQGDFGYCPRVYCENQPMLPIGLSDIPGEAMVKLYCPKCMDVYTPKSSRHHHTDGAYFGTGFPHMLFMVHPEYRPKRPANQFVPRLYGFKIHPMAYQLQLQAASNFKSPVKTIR

IC50 [6]: 15 nM
SMILES: O=C(O)c1ccc2c(c1)cc1nc(Nc3cccc(Cl)c3)c3ccncc3n12 [Compound 1, 5-((3-chlorophenyl)amino)pyrido[4′,3′:5,6]pyrimido[1,2-a]indole-9-carboxylic acid]
IC50 [1]: 1800 nM
IC50 [2]: 1400 nM
IC50 [3]: 2200 nM
IC50 [4]: 6900 nM
IC50 [5]: 5500 nM
IC50 [7]: 3500 nM
IC50 [8]: 3300 nM
IC50 [9]: 1900 nM
